# Data published in patent US20220280461A1, “SOLID ORAL DOSAGE FORM COMPRISING NAPROXEN AND VITAMIN B12” (DSM IP ASSETS B.V., priority 2019, published 2022).
# Test: Bulk density, tapped density and Carr Index (flowability) of raw materials and granules
# Description: The Carr Index is calculated by the formula 100×(1-BD/TD) and is used as an indication of the flowability.
compound,measurement,value
"COc1ccc2cc([C@H](C)C(=O)O)ccc2c1 [Naproxen Sodium, naproxen sodium]",Description (physical characterization of powder),very lumpy
